The assay deals with human chemokine receptor CXCR7 (Homo sapiens (Human), UniProt P25106). Briefly: Tango CXCR7-bla U2OS beta-arrestin recruitment assay (beta-lactamase reporter, FRET), antagonism of CXCL12/SDF1-α.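 Note: compounds preincubated 15 min before CXCL12 addition, then 22 h at 37 °C, FRET emission ratio read with CCF4-AM substrate after 2 h.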 It counts as cell-based. The settings on record: antagonistic effect on CXCR7; Tango CXCR7-bla U2OS cells, CXCL12/SDF1-α at its EC80. Background: Arrestin recruitment assays detect the binding of arrestin to an activated receptor.
Chain of human chemokine receptor CXCR7 (P25106 whole entry): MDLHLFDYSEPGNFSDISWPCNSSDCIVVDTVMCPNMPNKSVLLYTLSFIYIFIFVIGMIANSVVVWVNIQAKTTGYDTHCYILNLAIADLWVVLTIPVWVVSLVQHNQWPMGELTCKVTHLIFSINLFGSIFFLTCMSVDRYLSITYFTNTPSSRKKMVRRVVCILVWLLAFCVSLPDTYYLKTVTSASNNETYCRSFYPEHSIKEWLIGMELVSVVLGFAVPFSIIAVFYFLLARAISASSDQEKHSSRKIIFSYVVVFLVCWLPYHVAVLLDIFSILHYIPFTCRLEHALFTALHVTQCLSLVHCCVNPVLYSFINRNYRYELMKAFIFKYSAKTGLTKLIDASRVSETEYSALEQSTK

In the case of `CCN1CC[C@@H](NC(=O)c2cc(-c3ccc(F)cc3F)on2)[C@H](C(=O)NC(C)c2ccccn2)C1` (stereo partly shown) [Example 2.008], the IC50 (usually the point on the concentration scale where inhibition reaches its midpoint) is 405 nM.

Turning to `O=C(N[C@@H]1CCN(CC2CC2)C[C@H]1C(=O)NCCc1ccccn1)c1cc(-c2ccc(F)cc2F)on1` [Example 2.08], half-maximal inhibition (IC50) required 311 nM. For `CC(NC(=O)[C@@H]1CN(C2CCCC2)CC[C@H]1NC(=O)c1cc(-c2ccc(F)cc2F)on1)c1ccccn1` (stereo partly shown) [Example 2.009] the value was 10 nM; for `CC(NC(=O)[C@@H]1CN(CC2CC2)CC[C@H]1NC(=O)c1cc(-c2ccc(F)cc2F)on1)c1cccc[n+]1[O-]` (stereo partly shown) [Example 2.011], 114 nM; for `CC(C1CC1)N1CC[C@@H](NC(=O)c2cc(-c3ccc(F)cc3F)on2)[C@H](C(=O)N(C)C)C1` (stereo partly shown) [Example 2.013], 28 nM.

Compound `CN(C)C(=O)[C@@H]1CN([C@@H]2CCC[C@H]2CO)CC[C@H]1NC(=O)c1cc(-c2ccc(F)cc2F)on1` [Example 2.014] displayed an IC50 of 269 nM. For `CC[C@@H]1CCC[C@H]1N1CC[C@@H](NC(=O)c2cc(-c3ccc(F)cc3F)on2)[C@H](C(=O)N(C)C)C1` [Example 2.015] the value was 54 nM.

On to `C[C@@H]1CC[C@H]1N1CC[C@@H](NC(=O)c2cc(-c3ccc(F)cc3F)on2)[C@H](C(=O)N(C)C)C1` [Example 2.016], for which the IC50 was 80 nM.

For the compound `C[C@@H]1CC[C@H]1N1CC[C@@H](NC(=O)c2cc(-c3ccc(F)cc3F)on2)[C@H](C(=O)N(C)C)C1` [Example 2.016a], the IC50 was 49 nM. For `C[C@@H]1CC[C@H]1N1CC[C@@H](NC(=O)c2cc(-c3ccc(F)cc3F)on2)[C@H](C(=O)N(C)C)C1` [Example 2.016b] the value was 63 nM. For `CN(C)C(=O)[C@@H]1CN(C2CCC2(C)C)CC[C@H]1NC(=O)c1cc(-c2ccc(F)cc2F)on1` (stereo partly shown) [Example 2.017] the value was 73 nM. In turn, `CN(C)C(=O)[C@@H]1CN(C2CCC(C)(C)C2)CC[C@H]1NC(=O)c1cc(-c2ccc(F)cc2F)on1` (stereo partly shown) [Example 2.018] had an IC50 of 145 nM. As for `CN(C)C(=O)[C@@H]1CN(C2CCCC2)CC[C@H]1NC(=O)c1cc(-c2ccc(F)cc2F)on1` [Example 2.019], the IC50 worked out at 126 nM. For `CN(C)C(=O)[C@@H]1CN(C2CCCC2)CC[C@H]1NC(=O)c1cc(-c2ccc(F)cc2F)on1` [Example 2.019a] the value was 44 nM; for `CC(C)CCN1CC[C@@H](NC(=O)c2cc(-c3ccc(F)cc3F)on2)[C@H](C(=O)N(C)C)C1` [Example 2.021], 293 nM; for `CN(C)C(=O)[C@@H]1CN(CCC(C)(C)C)CC[C@H]1NC(=O)c1cc(-c2ccc(F)cc2F)on1` [Example 2.022], 155 nM. For `C[C@@H]1CCC[C@H]1N1CC[C@@H](NC(=O)c2cc(-c3ccc(F)cc3F)on2)[C@H](C(=O)N(C)C)C1` [Example 2.023] the value was 37 nM. For `C[C@@H]1CCC[C@H]1N1CC[C@@H](NC(=O)c2cc(-c3ccc(F)cc3F)on2)[C@H](C(=O)N(C)C)C1` [Example 2.023a] the value was 9 nM; for `C[C@@H]1CCC[C@H]1N1CC[C@@H](NC(=O)c2cc(-c3ccc(F)cc3F)on2)[C@H](C(=O)N(C)C)C1` [Example 2.023b], 26 nM.

Take `CN(C)C(=O)[C@@H]1CN(C2CCCC(C)(C)C2)CC[C@H]1NC(=O)c1cc(-c2ccc(F)cc2F)on1` (stereo partly shown) [Example 2.024]: half-maximal inhibition (IC50) required 101 nM. For `CN(C)C(=O)[C@@H]1CN(C2CC3(CCC3)C2)CC[C@H]1NC(=O)c1cc(-c2ccc(F)cc2F)on1` [Example 2.025] the value was 435 nM; for `CN(C)C(=O)[C@@H]1CN(C2CCC(F)CC2)CC[C@H]1NC(=O)c1cc(-c2ccc(F)cc2F)on1` (stereo partly shown) [Example 2.026], 249 nM; for `CN(C)C(=O)[C@@H]1CN(C2CCC(F)(F)CC2)CC[C@H]1NC(=O)c1cc(-c2ccc(F)cc2F)on1` [Example 2.027], 745 nM. For `CN(C)C(=O)[C@@H]1CN(C2CCC2)CC[C@H]1NC(=O)c1cc(-c2ccc(F)cc2F)on1` [Example 2.028] the value was 60 nM. For `CN(C)C(=O)[C@@H]1CN(CC2CC2)CC[C@H]1NC(=O)c1cc(-c2ccc(F)cc2F)on1` [Example 2.029] the value was 60 nM; for `CN(C)C(=O)[C@@H]1CN(C2CC(C)(C)C2)CC[C@H]1NC(=O)c1cc(-c2ccc(F)cc2F)on1` [Example 2.031], 558 nM.

For the compound `CO[C@@H]1CCC[C@@H](N2CC[C@@H](NC(=O)c3cc(-c4ccc(F)cc4F)on3)[C@H](C(=O)N(C)C)C2)C1` [Example 2.032], the IC50 stood at 192 nM. For `CO[C@@H]1CCCC[C@H]1N1CC[C@@H](NC(=O)c2cc(-c3ccc(F)cc3F)on2)[C@H](C(=O)N(C)C)C1` [Example 2.033] the value was 132 nM; for `CN(C)C(=O)[C@@H]1CN(CC2(C)CC2)CC[C@H]1NC(=O)c1cc(-c2ccc(F)cc2F)on1` [Example 2.034], 87 nM; for `CN(C)C(=O)[C@@H]1CN(CC2(C)CCC2)CC[C@H]1NC(=O)c1cc(-c2ccc(F)cc2F)on1` [Example 2.035], 121 nM. For `CN(C)C(=O)[C@@H]1CN(CC2=CCCC2)CC[C@H]1NC(=O)c1cc(-c2ccc(F)cc2F)on1` [Example 2.036] the value was 165 nM; for `CN(C)C(=O)[C@@H]1CN([C@@H]2C[C@@H]3CC[C@@H]2C3)CC[C@H]1NC(=O)c1cc(-c2ccc(F)cc2F)on1` [Example 2.037], 161 nM; for `CN(C)C(=O)[C@@H]1CN(CC2CCC2)CC[C@H]1NC(=O)c1cc(-c2ccc(F)cc2F)on1` [Example 2.038], 99 nM. For `CN(C)C(=O)[C@@H]1CN(CCC2CC2)CC[C@H]1NC(=O)c1cc(-c2ccc(F)cc2F)on1` [Example 2.039] the value was 83 nM; for `CN(C)C(=O)[C@@H]1CN(CC2CC2)CC[C@H]1NC(=O)c1cc(-c2ccc(F)cc2F)on1` [Example 2.045], 114 nM; for `CC(C1CC1)N1CC[C@@H](NC(=O)c2cc(-c3ccc(F)cc3F)on2)[C@H](C(=O)N(C)C)C1` (stereo partly shown) [Example 2.046], 16 nM. `CN(C)C(=O)[C@@H]1CN(C2CCCC23CC3)CC[C@H]1NC(=O)c1cc(-c2ccc(F)cc2F)on1` (stereo partly shown) [Example 2.047]: the IC50 amounted to 145 nM. For `CN(C)C(=O)[C@@H]1CN([C@@H]2CCCC[C@H]2O)CC[C@H]1NC(=O)c1cc(-c2ccc(F)cc2F)on1` [Example 2.048] the value was 501 nM; for `C[C@H]([C@@H](C)O)N1CC[C@@H](NC(=O)c2cc(-c3ccc(F)cc3F)on2)[C@H](C(=O)N(C)C)C1` [Example 2.049], 709 nM; for `C[C@H]([C@@H](C)O)N1CC[C@@H](NC(=O)c2cc(-c3ccc(F)cc3F)on2)[C@H](C(=O)N(C)CCc2ccccc2)C1` [Example 2.051], 42 nM. For `CN(CCc1ccccc1)C(=O)[C@@H]1CN(CCO)CC[C@H]1NC(=O)c1cc(-c2ccc(F)cc2F)on1` [Example 2.052] the value was 267 nM; for `C[C@@H](NC(=O)[C@@H]1CN([C@@H]2CCCC[C@H]2O)CC[C@H]1NC(=O)c1cc(-c2ccc(F)cc2F)on1)c1ccccn1` [Example 2.053], 26 nM; for `C[C@H]([C@@H](C)O)N1CC[C@@H](NC(=O)c2cc(-c3ccc(F)cc3F)on2)[C@H](C(=O)N[C@H](C)c2ccccn2)C1` [Example 2.054], 138 nM.

The values above are taken from patent US11306078B2, “Piperidine CXCR7 receptor modulators” (IDORSIA PHARMACEUTICALS LTD., priority 2016, dated 2022).
